Source: patent publication US20080085494A1, “Dental Compositions Containing Oxirane Monomers” (priority 2004, published 2008)

Assays:
Assay type in all cases: cell-based
Conditions in all cases: results to date
strain TA100 = test: Ames mutagenicity evaluation, strain TA100
Experimental: (§1) Ames mutagenicity evaluations of Compounds A-D were performed by the School of Pharmacy, University of Missouri at Kansas City (UMKC). Results to date have shown Compounds A, C, and D to be negative in strains TA100 and TA97A.

strain TA97A = test: Ames mutagenicity evaluation, strain TA97A
Experimental: as §1

strain TA1535 = test: Ames mutagenicity evaluation, strain TA1535
strain TA98 = test: Ames mutagenicity evaluation, strain TA98
strain TA102 = test: Ames mutagenicity evaluation, strain TA102

| SMILES | Ames mutagenicity (strain TA100) | Ames mutagenicity (strain TA97A) | Ames mutagenicity (strain TA1535) | Ames mutagenicity (strain TA98) | Ames mutagenicity (strain TA102) |
| --- | --- | --- | --- | --- | --- |
| c1ccc(OCCCCCCCCCCOc2ccccc2CC2CO2)c(CC2CO2)c1 (centres unmarked) [Compound A, 1,10-Bis[2-(2,3-epoxypropyl)phenoxy]decane] | negative | negative |  |  |  |
| c1ccc(OCCCCCOc2ccccc2CC2CO2)c(CC2CO2)c1 (centres unmarked) [Compound C, 1,5-Bis[2-(2,3-epoxypropyl)phenoxy]pentane] | negative | negative |  |  |  |
| c1ccc(OCCCOc2ccccc2CC2CO2)c(CC2CO2)c1 (centres unmarked) [Compound B, 1,3-Bis[2-(2,3-epoxypropyl)phenoxy]propane] | negative | marginally positive | negative | negative | negative |
| c1ccc(OCCCCCCOc2ccccc2CC2CO2)c(CC2CO2)c1 (centres unmarked) [Compound D, 1,6-Bis[2-(2,3-epoxypropyl)phenoxy]hexane] | negative | negative |  |  |  |
